# Laboratory results published in ChEMBL document CHEMBL4507286 (2021).
# Key:
# [1] = biological target: Non-receptor tyrosine-protein kinase TYK2 (Homo sapiens) (UniProt P29597)
# [2] = biological target: Dual specificity protein kinase CLK2 (Homo sapiens, UniProt P49760)
# [3] = biological target: Phosphatidylinositol 4-phosphate 5-kinase type-1 gamma (Homo sapiens) (UniProt O60331)
# [4] = biological target: Dual specificity tyrosine-phosphorylation-regulated kinase 1A (Homo sapiens) (UniProt Q13627)
# [5] = biological target: Serine/threonine-protein kinase Nek5 (Homo sapiens) (UniProt Q6P3R8)
# [6] = biological target: Tyrosine-protein kinase Tec (Homo sapiens) (UniProt P42680)
# [7] = biological target: Tyrosine-protein kinase HCK (Homo sapiens) (UniProt P08631)
# [8] = biological target: Phosphorylase b kinase gamma catalytic chain, skeletal muscle/heart isoform (Homo sapiens) (UniProt Q16816)
# [9] = biological target: Inhibitor of nuclear factor kappa-B kinase subunit beta (Homo sapiens) (UniProt O14920)
# [10] = biological target: 5-hydroxytryptamine receptor 5A (Homo sapiens) (UniProt P47898); details: Compound concentration 10.0 uM
# [11] = biological target: Ribosomal protein S6 kinase alpha-6 (Homo sapiens) (UniProt Q9UK32)
# [12] = biological target: Tyrosine-protein kinase Fes/Fps (Homo sapiens) (UniProt P07332)
# [13] = biological target: Histamine H2 receptor (Homo sapiens) (UniProt P25021); details: Compound concentration 10.0 uM
# [14] = biological target: Non-receptor tyrosine-protein kinase TYK2 (Homo sapiens) (UniProt P29597); remark: listed apart in the source
# [15] = biological target: Ribosomal protein S6 kinase alpha-5 (Homo sapiens) (UniProt O75582)
# [16] = biological target: Muscle, skeletal receptor tyrosine-protein kinase (Homo sapiens) (UniProt O15146)
# [17] = test system: Epidermal growth factor receptor (Homo sapiens), P00533 [G719S]
# [18] = biological target: Serine/threonine-protein kinase pim-2 (Homo sapiens) (UniProt Q9P1W9)
# [19] = test system: Receptor-type tyrosine-protein kinase FLT3 (Homo sapiens), P36888 [D835H]
# [20] = biological target: Homeodomain-interacting protein kinase 1 (Homo sapiens) (UniProt Q86Z02)
# [21] = biological target: cAMP-dependent protein kinase catalytic subunit alpha (Homo sapiens) (UniProt P17612)
# [22] = biological target: Serine/threonine-protein kinase STK11 (Homo sapiens) (UniProt Q15831)
# [23] = biological target: Mast/stem cell growth factor receptor Kit (Homo sapiens) (UniProt P10721)
# [24] = biological target: Beta-1 adrenergic receptor (Homo sapiens) (UniProt P08588); details: Compound concentration 10.0 uM
# [25] = test system: Receptor-type tyrosine-protein kinase FLT3 (Homo sapiens), P36888 [K663Q]
# [26] = biological target: Ribosomal protein S6 kinase alpha-3 (Homo sapiens) (UniProt P51812)
# [27] = biological target: Serine/threonine-protein kinase Sgk3 (Homo sapiens) (UniProt Q96BR1)
# [28] = biological target: Ribosomal protein S6 kinase alpha-4 (Homo sapiens) (UniProt O75676)
# [29] = biological target: Alpha-2A adrenergic receptor (Homo sapiens) (UniProt P08913); details: Compound concentration 10.0 uM
# [30] = biological target: Testis-specific serine/threonine-protein kinase 1 (Homo sapiens) (UniProt Q9BXA7)
# [31] = test system: Tyrosine-protein kinase ABL1 (Homo sapiens), P00519 [H396P]
# [32] = test system: Proto-oncogene tyrosine-protein kinase receptor Ret (Homo sapiens), P07949 [M918T]
# [33] = biological target: STE20/SPS1-related proline-alanine-rich protein kinase (Homo sapiens) (UniProt Q9UEW8)
# [34] = test system: Epidermal growth factor receptor (Homo sapiens), P00533 [UNDEFINED MUTATION]
# [35] = biological target: SRSF protein kinase 3 (Homo sapiens) (UniProt Q9UPE1)
# [36] = biological target: Ephrin type-A receptor 6 (Homo sapiens) (UniProt Q9UF33)
# [37] = biological target: Casein kinase I isoform alpha-like (Homo sapiens) (UniProt Q8N752)
# [38] = test system: Receptor-type tyrosine-protein kinase FLT3 (Homo sapiens), P36888 [D835Y]
# [39] = test system: Hepatocyte growth factor receptor (Homo sapiens), P08581 [Y1235D]
# [40] = test system: Epidermal growth factor receptor (Homo sapiens), P00533 [G719C]
# [41] = test system: Tyrosine-protein kinase ABL1 (Homo sapiens), P00519 [H396P]; remark: listed apart in the source
# [42] = biological target: Sodium-dependent serotonin transporter (Homo sapiens) (UniProt P31645); details: Compound concentration 10.0 uM
# [43] = test system: Epidermal growth factor receptor (Homo sapiens), P00533 [L858R,T790M]
# [44] = test system: Phosphatidylinositol 4,5-bisphosphate 3-kinase catalytic subunit alpha isoform (Homo sapiens), P42336 [Q546K]
# [45] = Compound concentration 1000.0 nM
# [46] = Compound concentration 100.0 nM
# Sequence of Non-receptor tyrosine-protein kinase TYK2 (Homo sapiens) (P29597 whole entry): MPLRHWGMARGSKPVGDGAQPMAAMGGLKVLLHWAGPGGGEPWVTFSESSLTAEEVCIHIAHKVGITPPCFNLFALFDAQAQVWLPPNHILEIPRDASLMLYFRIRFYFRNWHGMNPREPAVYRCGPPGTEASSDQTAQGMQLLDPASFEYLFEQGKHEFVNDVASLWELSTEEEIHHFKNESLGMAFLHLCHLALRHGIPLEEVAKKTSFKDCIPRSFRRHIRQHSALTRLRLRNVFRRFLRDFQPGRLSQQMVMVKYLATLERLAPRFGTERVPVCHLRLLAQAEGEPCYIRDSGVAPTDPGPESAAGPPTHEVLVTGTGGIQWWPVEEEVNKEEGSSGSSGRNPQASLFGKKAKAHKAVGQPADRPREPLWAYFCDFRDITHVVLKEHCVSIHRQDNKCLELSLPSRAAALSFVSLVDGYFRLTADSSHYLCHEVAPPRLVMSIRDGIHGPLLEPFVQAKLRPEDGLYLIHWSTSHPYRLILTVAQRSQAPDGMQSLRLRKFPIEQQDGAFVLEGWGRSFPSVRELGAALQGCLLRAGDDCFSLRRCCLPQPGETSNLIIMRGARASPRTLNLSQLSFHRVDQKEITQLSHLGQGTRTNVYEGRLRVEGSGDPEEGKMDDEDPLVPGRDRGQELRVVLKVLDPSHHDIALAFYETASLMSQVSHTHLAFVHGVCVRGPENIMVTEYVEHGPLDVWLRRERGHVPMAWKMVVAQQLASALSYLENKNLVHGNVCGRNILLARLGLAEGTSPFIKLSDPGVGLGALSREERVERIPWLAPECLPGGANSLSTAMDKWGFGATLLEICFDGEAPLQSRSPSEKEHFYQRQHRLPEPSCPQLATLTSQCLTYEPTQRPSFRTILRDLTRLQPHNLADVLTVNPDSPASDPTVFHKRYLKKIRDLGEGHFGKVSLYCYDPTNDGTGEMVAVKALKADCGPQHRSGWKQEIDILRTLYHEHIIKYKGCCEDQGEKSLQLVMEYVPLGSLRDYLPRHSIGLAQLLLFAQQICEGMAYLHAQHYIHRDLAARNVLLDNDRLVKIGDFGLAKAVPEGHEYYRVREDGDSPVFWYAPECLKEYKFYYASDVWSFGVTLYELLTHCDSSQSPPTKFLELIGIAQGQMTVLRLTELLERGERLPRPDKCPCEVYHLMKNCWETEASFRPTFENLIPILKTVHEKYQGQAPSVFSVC
# Sequence of Serine/threonine-protein kinase STK11 (Homo sapiens) (Q15831 whole entry): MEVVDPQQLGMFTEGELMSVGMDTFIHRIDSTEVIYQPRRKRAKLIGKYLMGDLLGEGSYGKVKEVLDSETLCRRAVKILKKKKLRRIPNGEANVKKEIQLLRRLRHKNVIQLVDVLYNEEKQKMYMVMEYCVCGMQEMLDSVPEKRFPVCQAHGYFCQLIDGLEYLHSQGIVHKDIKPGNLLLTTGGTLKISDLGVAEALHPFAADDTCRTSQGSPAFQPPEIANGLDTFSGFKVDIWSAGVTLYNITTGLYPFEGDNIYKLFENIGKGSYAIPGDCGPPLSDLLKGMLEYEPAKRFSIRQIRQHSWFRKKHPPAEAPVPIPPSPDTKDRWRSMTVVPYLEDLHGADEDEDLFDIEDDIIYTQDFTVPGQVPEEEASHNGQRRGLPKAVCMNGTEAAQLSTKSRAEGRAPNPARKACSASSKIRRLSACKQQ
# Sequence of Histamine H2 receptor (Homo sapiens) (P25021 whole entry): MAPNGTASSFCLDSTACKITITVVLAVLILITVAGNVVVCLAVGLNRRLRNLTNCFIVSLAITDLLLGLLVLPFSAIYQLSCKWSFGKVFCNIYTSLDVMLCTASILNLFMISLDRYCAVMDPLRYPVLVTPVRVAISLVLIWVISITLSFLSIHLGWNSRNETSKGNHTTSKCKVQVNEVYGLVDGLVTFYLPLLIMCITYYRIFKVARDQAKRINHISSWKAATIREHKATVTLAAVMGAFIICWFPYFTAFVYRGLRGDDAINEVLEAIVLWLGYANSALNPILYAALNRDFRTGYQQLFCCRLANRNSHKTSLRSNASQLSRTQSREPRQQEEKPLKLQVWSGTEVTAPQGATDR
# Sequence of Serine/threonine-protein kinase Sgk3 (Homo sapiens) (Q96BR1 whole entry): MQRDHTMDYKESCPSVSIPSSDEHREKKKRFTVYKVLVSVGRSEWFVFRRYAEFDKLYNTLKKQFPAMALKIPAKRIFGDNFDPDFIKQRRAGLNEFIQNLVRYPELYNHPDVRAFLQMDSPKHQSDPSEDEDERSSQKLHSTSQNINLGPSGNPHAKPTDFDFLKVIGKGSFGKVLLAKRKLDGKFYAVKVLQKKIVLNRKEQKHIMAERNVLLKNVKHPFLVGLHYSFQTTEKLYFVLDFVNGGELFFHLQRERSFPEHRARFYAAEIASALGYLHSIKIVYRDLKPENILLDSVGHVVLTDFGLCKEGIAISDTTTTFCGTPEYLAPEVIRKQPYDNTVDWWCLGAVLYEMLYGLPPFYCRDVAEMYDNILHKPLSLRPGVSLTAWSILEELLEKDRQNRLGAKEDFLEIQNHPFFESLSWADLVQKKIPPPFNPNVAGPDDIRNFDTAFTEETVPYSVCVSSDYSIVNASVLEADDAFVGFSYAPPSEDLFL
# Sequence of Mast/stem cell growth factor receptor Kit (Homo sapiens) (P10721 whole entry): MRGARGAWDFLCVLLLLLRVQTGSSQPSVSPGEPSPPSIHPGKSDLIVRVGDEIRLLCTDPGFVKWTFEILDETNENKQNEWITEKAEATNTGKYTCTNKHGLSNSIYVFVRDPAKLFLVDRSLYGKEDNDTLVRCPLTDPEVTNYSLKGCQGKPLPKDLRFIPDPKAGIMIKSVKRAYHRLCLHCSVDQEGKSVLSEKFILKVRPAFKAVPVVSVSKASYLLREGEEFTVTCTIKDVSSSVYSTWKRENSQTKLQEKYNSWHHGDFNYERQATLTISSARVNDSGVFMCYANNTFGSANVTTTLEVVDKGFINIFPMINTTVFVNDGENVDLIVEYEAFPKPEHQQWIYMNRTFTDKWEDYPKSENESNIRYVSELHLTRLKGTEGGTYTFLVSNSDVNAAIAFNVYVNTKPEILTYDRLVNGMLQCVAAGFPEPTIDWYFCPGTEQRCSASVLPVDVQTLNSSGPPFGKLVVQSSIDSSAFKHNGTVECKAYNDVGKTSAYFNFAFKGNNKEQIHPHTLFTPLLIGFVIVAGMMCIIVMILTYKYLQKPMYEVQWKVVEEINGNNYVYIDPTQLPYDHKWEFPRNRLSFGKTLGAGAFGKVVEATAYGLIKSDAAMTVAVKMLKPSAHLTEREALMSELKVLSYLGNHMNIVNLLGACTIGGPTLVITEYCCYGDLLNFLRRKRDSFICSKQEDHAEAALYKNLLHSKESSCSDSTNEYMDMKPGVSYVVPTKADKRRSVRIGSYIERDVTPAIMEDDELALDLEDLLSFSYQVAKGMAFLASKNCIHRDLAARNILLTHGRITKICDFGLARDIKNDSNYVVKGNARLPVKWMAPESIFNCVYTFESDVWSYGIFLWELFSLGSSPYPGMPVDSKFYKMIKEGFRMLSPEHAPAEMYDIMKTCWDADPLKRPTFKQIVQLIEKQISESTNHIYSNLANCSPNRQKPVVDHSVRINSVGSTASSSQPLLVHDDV
# Sequence of Dual specificity protein kinase CLK2 (P49760 whole entry, looked up): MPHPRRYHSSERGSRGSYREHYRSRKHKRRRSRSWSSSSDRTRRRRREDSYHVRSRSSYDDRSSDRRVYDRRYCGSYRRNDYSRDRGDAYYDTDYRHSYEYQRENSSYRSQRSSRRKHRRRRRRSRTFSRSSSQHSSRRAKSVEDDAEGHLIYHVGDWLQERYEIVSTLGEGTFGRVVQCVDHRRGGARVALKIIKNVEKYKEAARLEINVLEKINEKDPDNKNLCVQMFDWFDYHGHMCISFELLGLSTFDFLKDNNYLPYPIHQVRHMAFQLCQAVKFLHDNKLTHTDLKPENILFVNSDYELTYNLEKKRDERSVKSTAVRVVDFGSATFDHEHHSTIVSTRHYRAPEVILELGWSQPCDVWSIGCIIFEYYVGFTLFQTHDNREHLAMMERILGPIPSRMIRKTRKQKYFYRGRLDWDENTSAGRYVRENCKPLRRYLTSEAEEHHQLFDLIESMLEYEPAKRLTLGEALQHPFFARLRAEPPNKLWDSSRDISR
# Sequence of Casein kinase I isoform alpha-like (Homo sapiens) (Q8N752 whole entry, canonical isoform): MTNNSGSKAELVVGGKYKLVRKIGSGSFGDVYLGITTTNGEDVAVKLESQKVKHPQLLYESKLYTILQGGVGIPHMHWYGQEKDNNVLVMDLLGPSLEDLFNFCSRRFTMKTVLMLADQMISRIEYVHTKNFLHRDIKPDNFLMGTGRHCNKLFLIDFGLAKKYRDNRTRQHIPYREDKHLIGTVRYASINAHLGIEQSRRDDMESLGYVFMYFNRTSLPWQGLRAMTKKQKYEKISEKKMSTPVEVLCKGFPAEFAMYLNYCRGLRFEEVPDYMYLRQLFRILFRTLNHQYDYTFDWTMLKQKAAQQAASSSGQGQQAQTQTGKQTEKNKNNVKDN
# Sequence of Phosphatidylinositol 4-phosphate 5-kinase type-1 gamma (Homo sapiens) (O60331 whole entry): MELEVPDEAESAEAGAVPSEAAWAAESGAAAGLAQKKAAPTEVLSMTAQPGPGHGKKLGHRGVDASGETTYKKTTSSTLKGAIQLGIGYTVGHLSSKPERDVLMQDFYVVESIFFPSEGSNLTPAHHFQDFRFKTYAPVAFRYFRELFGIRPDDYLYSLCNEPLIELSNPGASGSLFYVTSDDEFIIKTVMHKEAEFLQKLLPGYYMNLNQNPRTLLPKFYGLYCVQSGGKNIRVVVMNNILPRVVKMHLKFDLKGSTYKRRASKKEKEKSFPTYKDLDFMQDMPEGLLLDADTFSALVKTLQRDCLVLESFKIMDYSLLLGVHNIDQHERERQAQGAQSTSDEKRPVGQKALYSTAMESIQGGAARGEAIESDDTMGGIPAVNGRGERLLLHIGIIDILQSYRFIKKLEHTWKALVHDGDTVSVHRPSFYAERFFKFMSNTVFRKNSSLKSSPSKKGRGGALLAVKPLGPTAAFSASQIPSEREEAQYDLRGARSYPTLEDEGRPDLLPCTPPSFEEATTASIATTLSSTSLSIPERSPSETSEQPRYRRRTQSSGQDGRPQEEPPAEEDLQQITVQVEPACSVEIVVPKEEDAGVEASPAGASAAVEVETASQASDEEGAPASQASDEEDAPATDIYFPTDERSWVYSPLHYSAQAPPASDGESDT
compound,measurement,setting,value
C[C@H](NC(=O)Nc1cc2[nH]ncc2c(CO)n1)c1ccccn1 [ERKi-NC],residual activity,[1]; [45],69.9%
same,residual activity,[2]; [45],100%
same,residual activity,[3]; [45],99.3%
same,residual activity,[4]; [45],100%
same,residual activity,[5]; [45],84.3%
same,residual activity,[6]; [45],100%
same,residual activity,[7]; [45],100%
same,residual activity,[8]; [45],96.3%
same,residual activity,[9]; [45],100%
same,inhibition,[10],9.46%
same,residual activity,[11]; [45],82.7%
same,residual activity,[12]; [45],100%
same,inhibition,[13],3.05%
same,residual activity,[14]; [45],100%
same,residual activity,[15]; [45],100%
same,residual activity,[16]; [45],100%
same,residual activity,[17]; [45],100%
same,residual activity,[18]; [45],100%
same,residual activity,[19]; [45],100%
same,residual activity,[20]; [45],48.9%
same,residual activity,[21]; [45],87.7%
same,residual activity,[22]; [45],100%
same,residual activity,[23]; [45],96.9%
same,inhibition,[24],28.2%
same,residual activity,[25]; [45],93.5%
same,residual activity,[26]; [45],79.5%
same,residual activity,[27]; [45],93.6%
same,residual activity,[28]; [45],100%
same,inhibition,[29],16.8%
same,residual activity,[30]; [45],99%
same,residual activity,[31]; [45],100%
same,residual activity,[32]; [45],100%
same,residual activity,[33]; [45],80.9%
same,residual activity,[34]; [45],100%
same,residual activity,[35]; [45],100%
same,residual activity,[36]; [45],89%
same,residual activity,[37]; [45],100%
same,residual activity,[38]; [45],96.8%
same,residual activity,[39]; [45],100%
same,residual activity,[40]; [45],100%
same,residual activity,[41]; [45],72.5%
same,inhibition,[42],-0.787%
same,residual activity,[43]; [45],100%
same,residual activity,[44]; [45],100%
C[C@@H](NC(=O)Nc1cc2[nH]ncc2c(CO)n1)c1ccccc1 [ERKi],residual activity,[1]; [46],94.7%
same,residual activity,[2]; [46],68.5%
same,residual activity,[3]; [46],89.9%
same,residual activity,[4]; [46],49%
same,residual activity,[5]; [46],97.6%
same,residual activity,[6]; [46],93.6%
same,residual activity,[7]; [46],94.6%
same,residual activity,[8]; [46],84.1%
same,residual activity,[9]; [46],100%
same,inhibition,[10],1.39%
same,residual activity,[11]; [46],96.8%
same,residual activity,[12]; [46],100%
same,inhibition,[13],11.8%
same,residual activity,[14]; [46],97.8%
same,residual activity,[15]; [46],87.8%
same,residual activity,[16]; [46],86.8%
same,residual activity,[17]; [46],86.3%
same,residual activity,[18]; [46],100%
same,residual activity,[19]; [46],100%
same,residual activity,[20]; [46],83.1%
same,residual activity,[21]; [46],91.8%
same,residual activity,[22]; [46],91.2%
same,residual activity,[23]; [46],92.5%
same,inhibition,[24],6.72%
same,residual activity,[25]; [46],96.5%
same,residual activity,[26]; [46],85.4%
same,residual activity,[27]; [46],83.2%
same,residual activity,[28]; [46],72.5%
same,inhibition,[29],9.2%
same,residual activity,[30]; [46],94.6%
same,residual activity,[31]; [46],84%
same,residual activity,[32]; [46],100%
same,residual activity,[33]; [46],100%
same,residual activity,[34]; [46],92.2%
same,residual activity,[35]; [46],100%
same,residual activity,[36]; [46],100%
same,residual activity,[37]; [46],79.8%
same,residual activity,[38]; [46],86.2%
same,residual activity,[39]; [46],90.5%
same,residual activity,[40]; [46],95.7%
same,residual activity,[41]; [46],94.6%
same,inhibition,[42],2.86%
same,residual activity,[43]; [46],100%
same,residual activity,[44]; [46],100%
